Measured values from US8609719B2, “Propargylated aminoindans, processes for preparation, and uses thereof” (priority 2006, dated 2013).
Where a name gives a salt, the structure may show the parent alone. Read-outs that look alike come from different tables or passages of the source.

What was measured:
[1] = biological target: T1, MAO-A (Rattus norvegicus, UniProt P21396); assay: Inhibition of MAO activity in vitro (5-HT substrate); type: biochemical
T1 construct: from tissue; host or cells: brain, liver and intestine (duodenum) of dosed rats
T1 sequence (P21396 1-526): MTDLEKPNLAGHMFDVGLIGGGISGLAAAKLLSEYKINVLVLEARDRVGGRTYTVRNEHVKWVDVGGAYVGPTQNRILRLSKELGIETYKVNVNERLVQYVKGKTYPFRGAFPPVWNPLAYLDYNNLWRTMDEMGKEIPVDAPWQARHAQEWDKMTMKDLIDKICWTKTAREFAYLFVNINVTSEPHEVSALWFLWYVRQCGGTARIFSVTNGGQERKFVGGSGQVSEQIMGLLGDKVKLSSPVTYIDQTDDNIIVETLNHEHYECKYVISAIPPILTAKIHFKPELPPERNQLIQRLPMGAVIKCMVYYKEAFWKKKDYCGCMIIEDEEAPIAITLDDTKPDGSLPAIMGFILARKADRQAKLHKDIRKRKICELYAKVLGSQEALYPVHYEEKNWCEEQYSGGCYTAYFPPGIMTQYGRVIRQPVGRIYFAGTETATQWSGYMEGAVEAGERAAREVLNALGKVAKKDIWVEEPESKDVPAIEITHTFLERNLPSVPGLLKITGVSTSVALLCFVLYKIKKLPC
Description: The MAO enzyme source was a homogenate of rat brain in 0.3M sucrose. The homogenate was diluted appropriately, and pre-incubated with serial dilutions of test compounds—diluted in phosphate buffer containing clogyline when 2-phenylethylamine (PEA) is the substrate, and diluted in phosphate buffer containing selegiline when 5-hydroxytryptamine (5-HT) is the substrate—for 60 minutes at 37° C. 14C-Labeled substrates (PEA for MAO-B determination and 5-HT for MAO-A determination) were then added, and the incubation continued for a further 20 minutes (PEA) or 30 minutes (5-HT). Substrate concentrations used were 10 μM (PEA) and 100 uM (5-HT). Enzyme concentration was chosen so that not more than 10% of the substrate was metabolized during the course of the reaction. Deaminated products were extracted into toluene-ethyl acetate (1:1 v/v) containing 0.4% (w/v) 2,5-diphenyloxazole (ppo) prior to determination by liquid scintillation counting. Radioactivity in the eluate indicated the production of neutral and acidic metabolites formed as a result of MAO activity. Activity of MAO in the sample was expressed as a percentage of control activity in the absence of inhibitor after subtraction of appropriate blank values. The activity determined using PEA as substrate is referred to as MAO-B, and that determined using 5-HT as MAO-A.
Concentrations of each inhibitor producing 50% inhibition of substrate metabolism (IC50) were calculated from the inhibition curves, and are shown in Table 1.

[2] = Pharmacokinetic analysis of ladostigil and metabolites in Alzheimer's disease patients; conditions: human, in vivo, 100 mg; for Cmax / AUC / AUC(0-t): after ladostigil tartrate 100 mg twice daily; for concentration at 12 h: mean concentration at pre-dose, 12 hours after the previous dose of ladostigil tartrate; for AUC: AUC (M)
[3] = biological target: T2, BuChE from human serum (Homo sapiens, UniProt P06276); assay: Inhibition of butyrylcholinesterase activity in vitro (Ellman, stopped time assay); type: biochemical; parameters: ki (bimolecular rate constant): unit not given here
T2 construct: BuChE from human serum (C-9971); purchased Sigma-Aldrich Israel C-9971; host or cells: purified from human serum
Description: BuChE from human serum (C-9971), butyrylthiocholine iodide (BuTh, B3253), bovine serum albumin (BSA, A-2153) 5,5′-dithiobis(2-nitrobenzoic acid) (DTNB, D8130) were obtained from Sigma-Aldrich Israel. BuChE was dissolved in phosphate buffer pH 8.0 containing 0.01% sodium azide (NaAz) and 1 mM EDTA and diluted to give a concentration of 35.9 units/ml. This solution was divided into aliquots of 0.5 ml, which were stored at −70° C. until use.
The inhibitory activity against BuChE was determined by the method of Ellmann et al. (Biochemical Pharmacology, 1961 (7) 88-95) using BuTh as a substrate. To characterize the carbamoylation step, a traditional stopped time assay was performed, in which BuChE was incubated at 37° C. with a minimum of 5 different concentrations of inhibitor in the assay buffer, and aliquots were transferred to an ELISA multiscan microplate reader (Labsystems) at various times for the determination of residual BuChE activity, with Ascent PC® software. The rate of reaction was measured at 412λ at 37° C. in 0.2 ml wells containing […] 0.023 units per ml, DTNB 0.4-0.5 mM, AcTh 0.50 or 1 mM and BSA (0.05%) in 50 mM phosphate buffer as described above. For all compounds measurements were made every 2 min for 15 min and then every 15 min for 3 hr.
The inhibition of BuChE by carbamates involves the formation of a reversible complex (EOH•CX), followed by carbamoylation of the enzyme to form (EOC) and a leaving group (HX). The carbamoylated enzyme is then hydrolyzed by water to regenerate the free enzyme (EOH). The formation of the reversible complex is represented by the equilibrium constant: KD. For the carbamoylation phase of the inhibition process the unimolecular rate constant is represented by kmax, and the bimolecular rate constant by ki.

[4] = both, Cmax (M), mean, mean of patients, maintenance analysis Week 4
[5] = both, Cmax (T), mean, mean of patients, termination analysis Week 9
[6] = both, Cmin (M), mean of patients, maintenance analysis Week 4
[7] = both, Cmin (T), mean of patients, termination analysis Week 9
[8] = Patient 1, maintenance analysis Week 4
[9] = Patient 2, maintenance analysis Week 4
[10] = Patient 3, maintenance analysis Week 4
[11] = Patient 4, maintenance analysis Week 4
[12] = Patient 5, maintenance analysis Week 4
[13] = Patient 6, maintenance analysis Week 4
[14] = Patient 7, maintenance analysis Week 4
[15] = Patient 8, maintenance analysis Week 4
[16] = Patient 1, termination analysis Week 9
[17] = Patient 2, termination analysis Week 9
[18] = Patient 3, termination analysis Week 9
[19] = Patient 4, termination analysis Week 9
[20] = Patient 5, termination analysis Week 9
[21] = Patient 6, termination analysis Week 9
[22] = Patient 7, termination analysis Week 9
[23] = Patient 8, termination analysis Week 9
[24] = Cmax (M), Patient 1, maintenance analysis Week 4
[25] = Cmax (M), Patient 2, maintenance analysis Week 4
[26] = Cmax (M), Patient 3, maintenance analysis Week 4
[27] = Cmax (M), Patient 4, maintenance analysis Week 4
[28] = Cmax (M), Patient 5, maintenance analysis Week 4
[29] = Cmax (M), Patient 6, maintenance analysis Week 4
[30] = Cmax (M), Patient 7, maintenance analysis Week 4
[31] = Cmax (M), Patient 8, maintenance analysis Week 4
[32] = Cmax (T), Patient 1, termination analysis Week 9
[33] = Cmax (T), Patient 2, termination analysis Week 9
[34] = Cmax (T), Patient 3, termination analysis Week 9
[35] = Cmax (T), Patient 4, termination analysis Week 9
[36] = Cmax (T), Patient 5, termination analysis Week 9
[37] = Cmax (T), Patient 6, termination analysis Week 9
[38] = Cmax (T), Patient 7, termination analysis Week 9
[39] = Cmax (T), Patient 8, termination analysis Week 9

T2 sequence (P06276 29-602): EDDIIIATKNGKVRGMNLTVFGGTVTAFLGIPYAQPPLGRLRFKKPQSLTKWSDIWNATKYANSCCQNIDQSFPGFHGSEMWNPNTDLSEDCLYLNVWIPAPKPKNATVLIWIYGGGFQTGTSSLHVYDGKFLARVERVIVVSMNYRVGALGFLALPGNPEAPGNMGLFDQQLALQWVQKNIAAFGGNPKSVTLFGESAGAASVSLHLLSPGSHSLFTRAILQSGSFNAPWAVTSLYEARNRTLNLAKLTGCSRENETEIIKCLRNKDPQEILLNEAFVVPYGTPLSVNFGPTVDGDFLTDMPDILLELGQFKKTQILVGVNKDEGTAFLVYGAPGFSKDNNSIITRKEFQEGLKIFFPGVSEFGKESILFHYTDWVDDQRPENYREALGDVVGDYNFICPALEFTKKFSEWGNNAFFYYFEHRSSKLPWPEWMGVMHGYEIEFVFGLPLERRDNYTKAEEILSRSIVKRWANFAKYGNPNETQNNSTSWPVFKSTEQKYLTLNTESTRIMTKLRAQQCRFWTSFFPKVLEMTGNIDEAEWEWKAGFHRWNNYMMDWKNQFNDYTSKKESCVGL

C#CCN[C@@H]1CCc2ccc(OC(=O)NC)cc21 [R-MCPAI, Methyl-carbamic acid 3-R-(prop-2-ynylamino)-indan-5-yl ester hydrochloride]
IC50 [1]: 37 µM | half-life ([2]; both): 1.39 h | Cmax [2, 4]: 1.29e-06 M | Cmax [2, 5]: 1.07e-06 M | concentration at 12 h [2, 6]: 1.74e-08 M | concentration at 12 h [2, 7]: 1.32e-08 M | AUC [2, 8]: 684 ng·h/mL | AUC [2, 9]: 103 ng·h/mL | AUC [2, 10]: 596 ng·h/mL | AUC [2, 11]: 764 ng·h/mL | AUC [2, 12]: 491 ng·h/mL | AUC [2, 13]: 630 ng·h/mL | AUC [2, 14]: 212 ng·h/mL | AUC [2, 15]: 304 ng·h/mL | AUC(0-t) [2, 16]: 493 ng·h/mL | AUC(0-t) [2, 17]: 789 ng·h/mL | AUC(0-t) [2, 18]: 621 ng·h/mL | AUC(0-t) [2, 19]: 487 ng·h/mL | AUC(0-t) [2, 20]: 551 ng·h/mL | AUC(0-t) [2, 21]: 947 ng·h/mL | AUC(0-t) [2, 22]: 584 ng·h/mL | AUC(0-t) [2, 23]: 343 ng·h/mL | Cmax [2, 24]: 1.8e-06 M | Cmax [2, 25]: 3e-07 M | Cmax [2, 26]: 1.2e-06 M | Cmax [2, 27]: 3e-06 M | Cmax [2, 28]: 1.5e-06 M | Cmax [2, 29]: 1.3e-06 M | Cmax [2, 30]: 5e-07 M | Cmax [2, 31]: 7e-07 M | Cmax [2, 32]: 1.3e-06 M | Cmax [2, 33]: 1e-06 M | Cmax [2, 34]: 1e-06 M | Cmax [2, 35]: 1.1e-06 M | Cmax [2, 36]: 1.3e-06 M | Cmax [2, 37]: 1.3e-06 M | Cmax [2, 38]: 1e-06 M | Cmax [2, 39]: 6e-07 M | Kd [3]: 21 ± 2 µM | inhibition of butyrylcholinesterase, in words [3]: potent inhibitors | ki (bimolecular rate constant) ([3]; BuChE, 37° C.): 31.3 ± 2.0 | kmax (unimolecular carbamoylation rate constant) ([3]; BuChE, 37° C.): 0.65 ± 0.03 min⁻¹

C#CCN[C@@H]1CCc2ccc(OC(=O)N(CC)CO)cc21 [R-HCPAI, Ethyl-hydroxymethyl-carbamic acid 3-R-(prop-2-ynylamino)-indan-5-yl ester fumarate (2:1)]
IC50 ([1]; rat brain homogenate, 5-HT 100 uM, 60 minutes pre-incubation at 37° C., read-out: IC50 for MAO-A inhibition): 414 µM | half-life ([2]; both): 1.03 h | Cmax [2, 4]: 3.63e-06 M | Cmax [2, 5]: 3.3e-06 M | concentration at 12 h [2, 6]: 2.32e-08 M | concentration at 12 h [2, 7]: 1.37e-08 M | AUC [2, 8]: 1660 ng·h/mL | AUC [2, 9]: 600 ng·h/mL | AUC [2, 10]: 2290 ng·h/mL | AUC [2, 11]: 2150 ng·h/mL | AUC [2, 12]: 1700 ng·h/mL | AUC [2, 13]: 1890 ng·h/mL | AUC [2, 14]: 519 ng·h/mL | AUC [2, 15]: 1510 ng·h/mL | AUC(0-t) [2, 16]: 1300 ng·h/mL | AUC(0-t) [2, 17]: 3100 ng·h/mL | AUC(0-t) [2, 18]: 2520 ng·h/mL | AUC(0-t) [2, 19]: 1740 ng·h/mL | AUC(0-t) [2, 20]: 1650 ng·h/mL | AUC(0-t) [2, 21]: 2400 ng·h/mL | AUC(0-t) [2, 22]: 1040 ng·h/mL | AUC(0-t) [2, 23]: 1340 ng·h/mL | Cmax [2, 24]: 3.6e-06 M | Cmax [2, 25]: 1.5e-06 M | Cmax [2, 26]: 3.7e-06 M | Cmax [2, 27]: 7e-06 M | Cmax [2, 28]: 4.7e-06 M | Cmax [2, 29]: 4e-06 M | Cmax [2, 30]: 1.2e-06 M | Cmax [2, 31]: 3.3e-06 M | Cmax [2, 32]: 3.2e-06 M | Cmax [2, 33]: 3.9e-06 M | Cmax [2, 34]: 3.9e-06 M | Cmax [2, 35]: 3.9e-06 M | Cmax [2, 36]: 3.7e-06 M | Cmax [2, 37]: 3.2e-06 M | Cmax [2, 38]: 2.1e-06 M | Cmax [2, 39]: 2.6e-06 M | inhibition of butyrylcholinesterase, in words [3]: weak inhibitor | ki (bimolecular rate constant) ([3]; BuChE, 37° C.): 0.936 ± 0.06 | kmax (unimolecular carbamoylation rate constant) ([3]; BuChE, 37° C.): 0.104 ± 0.043 min⁻¹ | Kd ([3]; BuChE, 37° C., read-out: KD (equilibrium constant of reversible complex)): 111 ± 50 µM
